Assay results taken from paper PMC9653649 (Molecules, 2022).
pIC50: −log10 of the molar value.

Legend:
[1] = system: Human Dermal Fibroblast (HDF) cell line; experiment: Cell viability using MTT assay; assay type: cell-based; conditions: 24 h, 0.1-100 µM, read-out: IC50 against fibroblast cells
Experimental: The synthesized compounds were screened for their cytotoxic activities against fibroblast cell lines at different concentrations for 24 h using MTT assay. […] Human Dermal Fibroblast (HDF) cell line was bought from the American Type Culture Collection (ATCC; Minnesota, USAHB-8065). It was cultured in Park Memorial Institute (RPMI-1640) culture media with glutamine 2 mM (bio west, Nampa, cat. no. L0498-500), 10% fetal bovine serum (PAA, Pasching Austria, cat. no. A11-151) and penicillin with streptomycin 1% (Lonza, Verviers, Belgium, cat. no. DE17-602E). The HDF cells were grown in 50 cm^2 flask (Greinerbio-one GmbH Maybach-str. 272636 Frickenhausen, Germany) and preserved in a typical humidified incubator supplied with 5% CO2, 95% air at 37 °C (New Brunswick Scientific-Innova co-170). Cells were washed with cold phosphate-buffered saline, trypsinized, harvested and centrifuged to form cell pellets. The cultured HDFa were plated in 96 well microplates at a concentration of 5 × 10^4 cells per well 24 h before the MTT assay to allow microplate adherence. MTT Reagent was provided, prepared for use, and acquired from Biospes, China, Cat n#BAR1005-1. According to the manufacturer protocol, the cultured cells were presented with different concentrations of the assessed agents. 20 μL of MTT solution was filled with each well. For 4 h, the plate was kept at 37 °C. After incubation, 100 μL of formazan diluent buffer (Biospes, Chongqing, China, Cat n#BAR1005-1) was poured into each well. ELISA plate reader (Stat Fax 2200, Awareness Technologies, Palm City, FL, USA) measured color absorbance at 540 nm. Three readings were taken on three different days and averaged for each sample. At last, cell survival was determined according to the following equation: %cell survival=Asample/Acontrol×100% Acontrol is the absorbance of the cell culture after adding MTT and formazan buffer, but without treatment by any drug candidate. […] IC50 values were then calculated by curve-fitting involving non-linear regression. […]

COX-1 = experiment: Western blot analysis of COX-1; assay type: cell-based; conditions: versus untreated control
Source text: (§1) The anti-inflammatory activities of compounds HI and HL were further confirmed by Western blotting analysis of COX-1/COX-2.
(§2) For validating the anti-inflammatory pathway at the protein expression level, we used the immunoblotting (Western blot) technique.

COX-2 = experiment: Western blot analysis of COX-2; assay type: cell-based; conditions: versus untreated control
Source text: as §1, §2

ovine COX-1 = molecular target: T1, ovine COX-1 (Ovis aries, UniProt P05979); experiment: In vitro COX-1 isozyme inhibition assay (EIA/ELISA kit, Cayman)
T1 sequence (P05979 25-600): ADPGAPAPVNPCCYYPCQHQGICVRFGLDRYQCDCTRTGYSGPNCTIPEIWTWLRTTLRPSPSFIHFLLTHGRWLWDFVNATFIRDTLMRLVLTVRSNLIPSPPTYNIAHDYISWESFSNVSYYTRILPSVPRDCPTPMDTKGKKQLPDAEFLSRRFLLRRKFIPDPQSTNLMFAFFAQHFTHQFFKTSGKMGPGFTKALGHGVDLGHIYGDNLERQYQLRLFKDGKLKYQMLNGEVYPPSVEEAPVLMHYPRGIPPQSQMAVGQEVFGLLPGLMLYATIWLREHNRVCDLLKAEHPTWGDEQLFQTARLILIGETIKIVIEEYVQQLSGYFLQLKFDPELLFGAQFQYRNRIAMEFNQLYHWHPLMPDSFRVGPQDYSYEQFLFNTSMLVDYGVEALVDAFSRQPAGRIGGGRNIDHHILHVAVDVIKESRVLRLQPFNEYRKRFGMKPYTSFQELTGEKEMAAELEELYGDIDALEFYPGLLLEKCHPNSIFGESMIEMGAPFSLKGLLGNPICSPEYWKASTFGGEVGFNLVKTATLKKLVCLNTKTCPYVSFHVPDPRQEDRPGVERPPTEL

human recombinant COX-2 = molecular target: T2, human recombinant COX-2 (Homo sapiens, UniProt P35354); experiment: In vitro COX-2 isozyme inhibition assay (EIA/ELISA kit, Cayman); conditions: for COX-2 SI (COX-1 IC50/COX-2 IC50): selectivity index
T2 sequence (P35354 18-604): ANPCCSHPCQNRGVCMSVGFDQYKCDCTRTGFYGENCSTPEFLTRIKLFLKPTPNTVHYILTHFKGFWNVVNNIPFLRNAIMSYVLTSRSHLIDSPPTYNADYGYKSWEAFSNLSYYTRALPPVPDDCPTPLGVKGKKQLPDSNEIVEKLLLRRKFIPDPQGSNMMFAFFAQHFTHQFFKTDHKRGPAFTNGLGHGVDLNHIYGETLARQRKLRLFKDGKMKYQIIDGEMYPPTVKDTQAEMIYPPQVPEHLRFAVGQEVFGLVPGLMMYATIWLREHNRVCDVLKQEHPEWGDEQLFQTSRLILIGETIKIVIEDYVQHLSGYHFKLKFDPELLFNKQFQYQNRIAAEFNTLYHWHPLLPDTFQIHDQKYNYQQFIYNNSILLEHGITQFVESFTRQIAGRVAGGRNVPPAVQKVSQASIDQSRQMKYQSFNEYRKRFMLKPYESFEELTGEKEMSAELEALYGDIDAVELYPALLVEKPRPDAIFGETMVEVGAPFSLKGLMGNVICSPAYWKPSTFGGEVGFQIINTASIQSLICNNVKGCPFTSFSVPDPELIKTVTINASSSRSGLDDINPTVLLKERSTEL

[2] = Solubility examined in various solvents; assay type: physicochemical; conditions: organic solvents
Source text: . H% = 7.46 (7.51); N% = 8.63 (8.55), calc. (found), respectively (Table 1).

| melting point | pIC50 (ovine COX-1) | pIC50 (human recombinant COX-2) | COX-2 SI (COX-1 IC50/COX-2 IC50) (human recombinant COX-2) | SMILES | pIC50 [1] | COX-1 protein level by Western blot (COX-1) | COX-2 protein level by Western blot (COX-2) | Solubility in solvents [2] |
| --- | --- | --- | --- | --- | --- | --- | --- | --- |
| 85 °C | 5.12 | 5.37 | 1.7 | CC(C)Cc1ccc(C(C)C(=O)NN)cc1 (stereo not drawn) [HI, 2-(4-Isobutylphenyl) Propane Hydrazide] | 5.41 | downregulation | downregulation |  |
|  | 5.07 | 5.31 | 1.8 | CC(C)Cc1ccc(C(C)C(=O)NN=Cc2ccccc2O)cc1 (stereo not drawn) [HL] | 5.38 | downregulation | downregulation | soluble in DMSO, DMF, ethanol, methanol, and acetonitrile |
|  |  |  |  | CC(C)Cc1ccc(C(C)C(=O)O)cc1 (stereo not drawn) [Ibuprofen, reference compound] | 4.51 |  |  |  |
